Experiment [1] deals with FoxP3. Nature of the experiment: FoxP3 induction in activated neonatal human cord blood CD4+CD25- naive T cells (RT-PCR, flow cytometry). Type of experiment: cell-based. The following applies: for optimal concentration for induction of FoxP3: human cord blood CD4+CD25- T cells; for induction of FoxP3+ T cells by single agent: ATRA 2 nM or TGF-β1 2 ng/ml. The protocol:
All-trans-retinoic acid (ATRA), a major vitamin A metabolite, induces FoxP3 expression in T cells. FoxP3 is the master transcription factor for CD4^+CD25^+ regulatory T cells. […] Neonatal human cord blood CD4^+CD25^− naïve T cells were cultured in a T cell activation condition with IL-2 (25 U/ml) and phytohemagglutinin (PHA, 5 μg/m) in the presence or absence of all-trans retinoic acid (ATRA, 2 nM) for 6 days. Naïve CD4^+CD25^− T cells were activated in the absence and presence of ATRA, and examined for expression of FoxP3 mRNA and protein by RT-PCR analysis (FIG. 1A), flow cytometry analysis (FIG. 1B) and dose-dependent induction of FoxP3 by ATRA (FIG. 1C).
As RARα can be induced in T cells in response to ATRA, the function of this receptor in induction of FoxP3 was examined using an RARα antagonist, Ro41-5253. […] FoxP3 protein expression in CD4 T cells, determined by intracellular staining by PE-labeled anti-FoxP3 antibody, is shown as FACS dot plots (FIG. 3A) and graphs (FIG. 3B). Neonatal human cord blood CD4^+CD25^− T cells were cultured in a T cell activation condition with IL-2 (25 U/ml ) and PHA (5 μg/ml) in the presence and absence of indicated agonists or antagonists for 6 days. The concentrations used to obtain the data were 2 nM (ATRA), 1 μM (Ro41-5253), 5 nM (AM-580), and 10 μM (methoprene acid).
TGF-β is a potent inducer of FoxP3 (Chen et al., 2003, J Exp Med). Therefore, the interaction between ATRA and TGF-β in their effects on FoxP3 expression was examined. […] Neonatal human cord blood CD4^+CD25^− T cells were cultured in a T cell activation condition with IL-2 (100 U/ml) and PHA (5 μg/ml) in the presence and absence of indicated agonists or antagonists for 6 days. Ro41-5253 is a RARα antagonist. […] ATRA was used at 2 nM.

Experiment [2] concerns FoxP3. As to the kind of experiment: FoxP3 induction in mouse DO11.10 (Rag2-/-) CD4+CD25- T cells. Type of experiment: cell-based. The following applies: for induction of FoxP3 in mouse T cells: irradiated splenocytes, OVA 323-339 peptide, IL-2 100 U/ml. The protocol: It was determined if ATRA could induce FoxP3 in mouse T cells. […] These CD4^+ CD25^− T cells were cultured in a T cell activation condition (irradiated splenocytes with […] of OVA 323-339 antigen peptide and 100 U/ml of IL-2) in the presence or absence of ATRA. […] Other retinoids such as AM-580 (a RARα agonist) and methoprene acid (a RXR agonist) were also tested.

Another experiment relates to RARα. As to the kind of experiment: RT-PCR of RAR and RXR mRNA expression in CD4+CD25- T cells activated in ATRA. Type of experiment: cell-based, human. The following applies: ATRA 2 nM, IL-2 + PHA, 6 days; 6 RAR and RXR receptors.
Another experiment deals with CD4+CD25- T cells. Nature of the experiment: 3H-thymidine incorporation assay: proliferation and suppression of CD4+CD25- target T cells in co-culture. Type of experiment: cell-based, human. The following applies: treated 6-7 days. The protocol: ATRA-treated T cells are suppressor cells with unique effector molecules. Generally, regulatory T cells are hypo-proliferative and can suppress the proliferation of target T cells (CD4^+CD25^− T cells) in co-culture. It was therefore determined if the ATRA-induced FoxP3^+ cells had these features. […] Freshly isolated CD4^+CD25^− T cells were cultured with ATRA (2 nM), TGF-p31 (2 ng/ml) or ATRA+TGF-β1 in a T cell activation condition (IL-2 +PHA) for 6-7 days. Then, the T cells were co-cultured with CD4^+CD25^− cells for 5 additional days. A 3H-thymidine incorporation assay was performed to assess the proliferation potentials of the cultures.

In another experiment the test system is granzymes. Nature of the experiment: Expression of granzyme A, granzyme B and perforin in induced FoxP3+ T cells. The experiment is classed as cell-based, human. The following applies: for granzyme A expression in induced FoxP3+ cells: FoxP3+ T cells from cord blood CD4+CD25- T cells. The protocol:
Regulatory T cells may use a number of different effector mechanisms to suppress target cells. Granzymes are a class of such effector molecules implicated in regulatory function. […] FoxP3^+ T cells, generated from cord blood CD4^+CD25^− T cells with ATRA, were examined for their expression of granzyme A, granzyme B and perforin. Also included were FoxP3^+T cells, generated with IL-2 (control) or IL-2 (25 U/ml) and TGF-β (2 ng/ml). Expression of granzyme A and B is shown in panel A. Three independent experiments were combined and averages and SEM are shown (panel B).

For experiment [3], the system named is FoxP3. Nature of the experiment: Conversion of mouse naive T cells into mucosal tissue homing FoxP3+ T cells with ATRA and cytokines. Type of experiment: cell-based. The conditions noted are these: 6-7 days. The protocol:
Also provided is a method with which almost all of naïve T cells can be converted into mucosal tissue homing FoxP3^+ T cells by utilizing ATRA and cytokines. Mouse naïve T cells were cultured with ATRA (1-100 nM), IL-2 (10-1000 U/ml) and TGF-β1 (1-100 ng/ml), together with TCR activators (concanavalin A or PHA at 1-10 μg/ml) for 6-7 days. […] This method reproducibly generates 92-99% pure mucosal tissue homing FoxP3^+ T cells.

In experiment [4] the test system is FoxP3. Nature of the experiment: FoxP3 induction in activated neonatal human cord blood CD4+CD25- naive T cells (RT-PCR, flow cytometry). Type of experiment: cell-based. The conditions noted are these: very high concentration (20 μM), IL-2 + PHA, 6 days.
The test system of experiment [5] is α4β7+ mucosal tissue homing FoxP3+ T cells. Nature of the experiment: Intestinal FoxP3+ T cell numbers in mice fed food with or without vitamin A. Type of experiment: in vivo, mouse. The following applies: 6 weeks. The protocol:
Regulation of mucosal FoxP3^+ cell numbers by vitamin A in vivo and in vitro. The in vivo effect of vitamin A on numbers of intestinal FoxP3^+ T cells was determined. Adult mice were fed with food with (control mice) or without vitamin A for 6 weeks, and then the numbers of FoxP3^+ T cells in small and large intestine, and mesenteric lymph nodes were determined by flow analysis (FIG. 11A).

Method for RARα: RARα, RARβ and RARγ are the major receptors that are likely to mediate the function of ATRA. The mRNA expression of RARs and RXRs in freshly isolated CD4^+CD25^+ and CD4^+CD25^− T cells was determined, as well as in CD4^+CD25^−T cells activated in ATRA. Neonatal human cord blood CD4^+CD25^− naïve T cells were cultured in a T cell activation condition with IL-2 (25 U/ml) and PHA (5 μg/ml) in the presence or absence of ATRA (2 nM) for 6 days. Freshly isolated CD4^÷CD25^+ and CD4^+CD25^− cells are shown for comparison. RT-PCR was performed, and a representative set of results out of 4 independent experiments are shown.

Consider `CC1(C)CCC(C)(C)c2cc(C(=O)Nc3ccc(C(=O)O)cc3)ccc21` [AM-580], for which the “induction of FoxP3 by RARα-specific agonist” value in the experiment on FoxP3 [1] (AM-580 5 nM, IL-2 + PHA, 6 days) is on record as “able to induce FoxP3”. Moreover, the “optimal concentration for induction of FoxP3” value in the experiment on FoxP3 [1] (IL-2 + PHA, 6 days) is 5 nM. The “induction of FoxP3 in mouse T cells” value in the experiment with FoxP3 [2] is reported as “good inducer of FoxP3 at low concentrations”.
With `CC1=C(/C=C/C(C)=C/C=C/C(C)=C/C(=O)O)C(C)(C)CCC1` [ATRA, All-trans-retinoic acid], the “effect of ATRA added to the culture with TGF-β on FoxP3+ T cell induction” value with FoxP3 [1] (ATRA 2 nM + TGF-β1 2 ng/ml, IL-2 100 U/ml + PHA, 6 days) is listed as “enhanced the effect of TGF-β”. In addition, the “induction of FoxP3+ T cells by single agent” value with FoxP3 [1] (IL-2 100 U/ml + PHA, 6 days) is given as “clear effects”. For the same compound, in the experiment with FoxP3 [1] (ATRA 2 nM with IL-2 25 U/ml and PHA, 6 days, versus IL-2 alone), the “levels of FoxP3 mRNA expression (RT-PCR)” value was “increased compared to IL-2 alone”. Further, the “FoxP3+ cells at the protein level (flow cytometry)” value in the experiment with FoxP3 [1] (ATRA 2 nM with IL-2 and PHA, 6 days, presence versus absence of ATRA) was “significantly more”. For the same compound, the “optimal concentration for induction of FoxP3” value in the experiment on FoxP3 [1] (IL-2 + PHA, 6 days) was 2 to 10 nM. In addition, the “RAR and RXR family receptor mRNA expression in response to ATRA” value in the experiment with RARα is reported as “most highly expressed receptor in response to ATRA was RARα”. Besides, in the experiment on CD4+CD25- T cells (co-cultured 5 additional days), the “suppressive activity of treated T cells on CD4+CD25- T cells” value was “levels similar to that of TGF-β1-treated cells”. Also, the “proliferation potential of treated T cells (3H-thymidine incorporation)” value in the experiment with CD4+CD25- T cells (compared to fresh CD4+CD25- cells and cultured control cells) is “low proliferation potential”. Moreover, the “granzyme A expression in induced FoxP3+ cells” value in the experiment with granzymes was “expressed granzyme A”. Further, the “granzyme B or perforin-expressing cells among induced FoxP3+ cells” value with granzymes (versus TGF-β induced FoxP3+ cells) was “Consistently more”. In addition, in the experiment on FoxP3 [2], the “induction of FoxP3 in mouse T cells” value was “induced FoxP3 expression in T cells”. In addition, in the experiment on FoxP3 [2] (mouse DO11.10 T cells), the “trafficking receptors of mouse FoxP3+ T cells primed in retinoic acid” value was “expressed the mucosal tissue homing receptors CCR9 and α4β7”. In the experiment with FoxP3 [3] (ATRA 1-100 nM, IL-2 10-1000 U/ml, TGF-β1 1-100 ng/ml, TCR activators), the “T cells after culture that were FoxP3+ regulatory T cells expressing the mucosal tissue homing receptor” value is roughly 95%. In the experiment with FoxP3 [3] (ATRA, IL-2, TGF-β1 and TCR activators), the “purity of mucosal tissue homing FoxP3+ T cells reproducibly generated” value was 92-99%.
Consider `CCCCCCCOc1cc2c(cc1/C(C)=C/c1ccc(C(=O)O)cc1)C(C)(C)CCS2(=O)=O` [Ro41-5253], for which the “suppression of the FoxP3+ cell induction effect of ATRA” value with FoxP3 [1] (Ro41-5253 1 μM, ATRA 2 nM, 6 days) was “completely suppressed”. Moreover, in the experiment with FoxP3 [1] (Ro41-5253, ATRA 2 nM, TGF-β1 2 ng/ml), the “blocking of ATRA-induced versus TGF-β-induced FoxP3 induction” value is listed as “blocked only ATRA-induced but not TGF-β-induced FoxP3 induction”.
Turning to `COC(C)(C)CCCC(C)C/C=C/C(C)=C/C(=O)O` (centres unmarked) [methoprene acid], the “induction of FoxP3 in mouse T cells” value in the experiment on FoxP3 [2] was “able to induce FOXP3 only at very high concentrations”. In addition, in the experiment with FoxP3 [2] (mouse DO11.10 T cells), the “optimal dose for induction of FOXP3 in mouse T cells” value was roughly 100 µM. In addition, in the experiment on FoxP3 [4], the “induction of FoxP3 by pan-RXR agonist” value is listed as “only marginal effects”.
For the compound “TGF-β: a potent inducer of FoxP3 (cytokine)”, the “induction of FoxP3+ T cells by single agent” value in the experiment on FoxP3 [1] (IL-2 100 U/ml + PHA, 6 days) was “clear effects”. The “granzyme A expression in induced FoxP3+ cells” value in the experiment with granzymes is given as “did not express granzyme A at significant levels”.
Take vitamin A: the “numbers of α4β7+ mucosal tissue homing FoxP3+ T cells in the large and small intestines” value in experiment [5] (vitamin A-deficient food versus control food with vitamin A) is recorded as “significantly smaller numbers”. Further, in experiment [5] (vitamin A-deficient food versus control food), the “numbers of FoxP3+ T cells in lymph nodes (MLN)” value is “no reduction”.

The values are drawn from patent US20100113610A1, “METHODS FOR CONTROLLING INFLAMMATORY AND IMMUNOLOGICAL DISEASES” (Purdue Research Foundation, priority 2007, published 2010).
